The results in this text go back to US20260224583A1, “COMPOSITIONS USEFUL FOR MODULATING SPLICING” (Skyhawk Therapeutics, Inc., priority 2023, published 2026).

In the assay the test system is ATXN3 transcripts containing exon 4 (E4E5). The experiment in a line: ATXN3 Quantitative Splicing Assay (qPCR, E4E5 primers/probe). The class given is cell-based. The following applies: Homo sapiens; SK-N-MC cells, 24 h treatment, 30 μM to 0.6 nM; read-out: ATXN3 Potency - Splicing E4E5 IC50. As for the experimental part:
Human neuroblastoma SK-N-MC cells were plated in 384-well plates at 20,000 cells/well. Twenty-four hours after plating, cells were treated with compounds for 24 h at appropriate concentrations ranging from 30 μM to 0.6 nM (0.3% DMSO). Treated cells were lysed in 15 μL of lysis buffer, and cDNA was synthesized using the Fast Advanced Cells-to-Ct kit. Two μL of each cDNA was used in qPCR reactions to confirm the exon 4 skipped transcripts of ATXN3. A second set of primers/probe E4E5 was used to detect the transcripts containing exon 4. The third set of primers/probe E8E9 was used to detect total gene level of ATXN3. The qPCR reactions were prepared in 384-well plates in 10 μL volume, using TaqMan™ Fast Advanced Master Mix with primers and probes shown in the table below. Reactions were run in a Quant Studio 6 qPCR instrument with default settings.
The primers and probes are listed below in Table 3.
(In general: In qPCR the cycle at which signal appears reflects the starting amount.)

On to `C[C@H](F)[C@H](N)Cc1cc2c(NCc3ccco3)nc(Cl)nn2c1Br` [Compound 1, 6-((2R,3S)-2-amino-3-fluorobutyl)-7-bromo-2-chloro-N-(furan-2-ylmethyl)pyrrolo[2,1-f][1,2,4]triazin-4-amine], for which the IC50 (commonly the concentration that inhibits the measured activity by half) is 0.01 to 100 nM.
`C[C@H](F)[C@H](N)Cc1cc2c(NCc3ccco3)nc(Cl)nn2c1Cl` [Compound 2, 6-((2R,3S)-2-amino-3-fluorobutyl)-2,7-dichloro-N-(furan-2-ylmethyl)pyrrolo[2,1-f][1,2,4]triazin-4-amine]: the IC50 lay in the range of 101 to 500 nM.
As to `N[C@@H](CF)Cc1cc2c(NCc3ccco3)nc(Cl)nn2c1Cl` [Compound 3, (R)-6-(2-amino-3-fluoropropyl)-2,7-dichloro-N-(furan-2-ylmethyl)pyrrolo[2,1-f][1,2,4]triazin-4-amine], the IC50 is 0.01 to 100 nM.
Turning to `N[C@@H](CF)Cc1cc2c(NCc3ccco3)nc(Cl)nn2c1Br` [Compound 4, (R)-6-(2-amino-3-fluoropropyl)-7-bromo-2-chloro-N-(furan-2-ylmethyl)pyrrolo[2,1-f][1,2,4]triazin-4-amine], the IC50 was 0.01 to 100 nM.
In the case of `N[C@@H](COC(F)F)Cc1cc2c(NCc3ccco3)nc(Cl)nn2c1Cl` [Compound 5, (R)-6-(2-amino-3-(difluoromethoxy)propyl)-2,7-dichloro-N-(furan-2-ylmethyl)pyrrolo[2,1-f][1,2,4]triazin-4-amine], the half-inhibitory concentration (IC50) lay in the range of 101 to 500 nM.
`N[C@@H](COC(F)F)Cc1cc2c(NCc3ccco3)nc(Cl)nn2c1Br` [Compound 6, (R)-6-(2-amino-3-(difluoromethoxy)propyl)-7-bromo-2-chloro-N-(furan-2-ylmethyl)pyrrolo[2,1-f][1,2,4]triazin-4-amine]: the 50% inhibitory concentration (IC50) fell in the range of 101 to 500 nM.
Next, `COC[C@H](N)Cc1cc2c(NCc3ccco3)nc(Cl)nn2c1Cl` [Compound 7, (R)-6-(2-amino-3-methoxypropyl)-2,7-dichloro-N-(furan-2-ylmethyl)pyrrolo[2,1-f][1,2,4]triazin-4-amine]: 101 to 500 nM; `COC[C@H](N)Cc1cc2c(NCc3ccco3)nc(Cl)nn2c1Br` [Compound 8]: 101 to 500 nM.
Then `C[C@H](N)Cc1cc2c(NCc3ccco3)nc(Cl)nn2c1Cl` [Compound 9], with 0.01 to 100 nM; and `C[C@H](N)Cc1cc2c(NCc3ccco3)nc(Cl)nn2c1Br` [Compound 10], with 101 to 500 nM.
Then `[2H]C([2H])([2H])OCC(N)Cc1cc2c(NCc3ccco3)nc(Cl)nn2c1Br` (centres unmarked) [Compound 11], with 101 to 500 nM.
In the case of `[2H]C([2H])([2H])OC[C@H](N)Cc1cc2c(NCc3ccco3)nc(Cl)nn2c1Cl` [Compound 12], the IC50 fell in the range of 101 to 500 nM.
Take `N[C@H](Cc1cc2c(NCc3ccco3)nc(Cl)nn2c1Br)CC1CC1` [Compound 13]: the IC50 is 101 to 500 nM.
On to `N[C@H](Cc1cc2c(NCc3ccco3)nc(Cl)nn2c1Br)CC(F)(F)F` [Compound 14], for which the IC50 lay within 101 to 500 nM.
For `N[C@@H](CCOC(F)(F)F)Cc1cc2c(NCc3ccco3)nc(Cl)nn2c1Br` [Compound 15], the IC50 is 101 to 500 nM.
Consider `N[C@@H](CCOC(F)F)Cc1cc2c(NCc3ccco3)nc(Cl)nn2c1Br` [Compound 16], for which the IC50 was in the range of 0.01 to 100 nM.
Then `N[C@H](Cc1cc2c(NCc3ccco3)nc(Cl)nn2c1Cl)CC1CC1` [Compound 17], with 101 to 500 nM.
